Measured values from DBAASP.

Columns and labels:
Assay in all cases: ≥ marks a high value that may be exact or a test limit, other limits are often not marked, values filed in µg/mL are converted to µM
[1] = system: Pseudomonas aeruginosa H1030
[2] = system: Enterococcus faecium t62764
[3] = system: Enterococcus faecalis ATCC 29212
[4] = system: Pseudomonas aeruginosa PAO1 H103
[5] = system: Klebsiella pneumoniae ESBL 63575
[6] = system: Enterococcus faecalis W61950
[7] = system: Escherichia coli ESBL 64771
[8] = system: Stenotrophomonas maltophilia ATCC 13637
[9] = system: Enterococcus faecium mic80
[10] = system: Klebsiella pneumoniae ESBL 61962
Pseudomonas aeruginosa 9 = system: Pseudomonas aeruginosa 9
[11] = system: Staphylococcus aureus ATCC 25923
[12] = system: Enterobacter cloacae 218R
[13] = system: Pseudomonas aeruginosa 198
[14] = system: Staphylococcus aureus C623
[15] = system: Pseudomonas aeruginosa 213
[16] = system: Pseudomonas aeruginosa LES400
[17] = system: Enterococcus faecalis f43559
[18] = system: Escherichia coli ESBL 63103
[19] = system: Pseudomonas aeruginosa H1027
[20] = system: Staphylococcus aureus IAM 1011
[21] = system: Shewanella putrefaciens IAM 1509
[22] = system: Escherichia coli JCM 1649
[23] = system: Vibrio parahaemolyticus Vp+1
[24] = system: Bacillus subtilis IAM 1026
[25] = system: Vibrio anguillarum NCIMB 829
[26] = system: Aeromonas salmonicida NCIMB 1102
[27] = system: Photobacterium damselae subsp. piscicida Sp 9587
Salmonella typhimurium = system: Salmonella typhimurium

Measured: MIC

CC(C)[C@H](NC(=O)[C@H](CCCN=C(N)N)NC(=O)[C@H](CCCCN)NC(=O)[C@@H](NC(=O)[C@H](Cc1ccccc1)NC(=O)[C@H](CCCCN)NC(=O)[C@H](Cc1c[nH]c2ccccc12)NC(=O)[C@@H](NC(=O)[C@H](C)N)C(C)C)C(C)C)C(=O)O [AVWKFVKRV]
186 µM: [11]
≥ 46.8 µM: [8]
≥ 93.6 µM: [2] | [7] | [9] | [19]
> 186 µM: [3]
not listed: [20] | [21] | [22] | [23] | [24] | [25] | [26] | [27] | Salmonella typhimurium
≥ 186 µM: all other assays above

CC[C@H](C)[C@H](NC(=O)[C@H](CC(N)=O)NC(=O)[C@H](CO)NC(=O)[C@H](CC(C)C)NC(=O)[C@H](C)NC(=O)CNC(=O)[C@H](Cc1ccccc1)NC(=O)[C@H](CC(C)C)NC(=O)[C@H](CO)NC(=O)[C@@H]1CCCN1C(=O)[C@@H](NC(=O)[C@H](CC(C)C)NC(=O)[C@H](CCCCN)NC(=O)[C@@H](NC(=O)[C@H](CC(C)C)NC(=O)[C@H](Cc1ccccc1)NC(=O)CNC(=O)[C@H](Cc1ccccc1)NC(=O)[C@@H](N)CC(C)C)[C@@H](C)CC)[C@@H](C)CC)C(=O)NCC(=O)N[C@@H](CCCN=C(N)N)C(=O)N[C@@H](CC(N)=O)C(=O)N[C@@H](CCCN=C(N)N)C(=O)N[C@@H](CC(N)=O)C(=O)N[C@@H](CCC(N)=O)C(=O)O [LFGFLIKLIPSLFGALSNIGRNRNQ]
17.9 µM: [22] | [25] | [26] | Salmonella typhimurium
8.96 µM: [23] | [24]
4.48 µM: [21] | [27]
2.24 µM: [20]
